Assay results published in patent publication US20220401469A1, “PROCESS FOR PREPARATION OF BIOLOGICALLY ACTIVE COPOLYMER” (RECCE PHARMACEUTICALS LTD, priority 2020, published 2022).
Several values for one entry are separate records, joined by “and”; a condition that tells them apart may be missing. Identical values can stand only once. Marks after values point to notes of the source that are not given here.

Experiments:
[1] = system: Neisseria gonorrhoea (ATCC700825); experiment: Mouse vaginal infection model; details: mice; Meropenem IV bolus 50 mg/kg for seven days; p<0.05
[2] = system: Neisseria gonorrhoea (ATCC700825); details: in vivo, 50 mg/kg
[3] = system: E. coli [ATCC 25922]; experiment: Ascending Urinary Tract Infection Rat Model (kidneys, bladder); format: in vivo
[4] = system: Influenza A virus (H1N1) Strain: A/NWS/33; experiment: Mouse influenza model (C57BL/6), body weights and lung viral titers; format: in vivo
[5] = system: Staphylococcus aureus [ATCC 43300]; experiment: Burn Wound Infection Model in rats; format: in vivo
[6] = Meropenem 30 mg/kg single dose i.v. bolus
[7] = Meropenem 30 mg/kg single dose i.v. bolus, individual animals
[8] = Meropenem single IV bolus 30 mg/kg, E1 50 and 500 mg/kg i.v. 24 h infusion

Molecule: C[C@@H](O)[C@H]1C(=O)N2C(C(=O)O)=C(S[C@@H]3CN[C@H](C(=O)N(C)C)C3)[C@H](C)[C@H]12 [Meropenem]
- bactericidal activity in vaginal load compared to vehicle control [1]: significant bactericidal activity in vaginal load
- Clinical signs [2]: N
- Mean Log10CFU/g Bladder change (wrt 4 h PI control: 6.54 Log10CFU/g Bladder) [3, 6]: −1.11 Log10CFU/g
- Mean Log10CFU/g kidney change (wrt 4 h PI control: 4.73 Log10CFU/g kidneys) [3, 6]: −1.27 Log10CFU/g
- Mean ± SD (Log10 CFU/g Bladder) [3, 6]: 5.43 ± 0.36 Log10 CFU/g Bladder
- Mean ± SD (Log10 CFU/g kidneys) [3, 6]: 3.46 ± 0.19 Log10 CFU/g kidneys
- Log10 CFU/g Bladder [3, 7]: 5.04 Log10 CFU/g and 5.24 Log10 CFU/g and 5.91 Log10 CFU/g and 5.25 Log10 CFU/g and 5.71 Log10 CFU/g
- Log 10 CFU/g Kidneys Left kidney [3, 7]: 3.46 Log 10 CFU/g (2×) and 3.61 Log 10 CFU/g and 3.41 Log 10 CFU/g and 3.37 Log 10 CFU/g
- Log 10 CFU/g Kidneys Right kidney [3, 7]: 3.36 Log 10 CFU/g and 3.69 Log 10 CFU/g and 3.80 Log 10 CFU/g and 3.16 Log 10 CFU/g and 3.31 Log 10 CFU/g
- antibacterial activity in kidneys compared to vehicle control [3, 8]: significant bactericidal activity in kidneys
- antibacterial activity in the bladder compared to vehicle control [3, 8]: significant bactericidal activity in the bladder

Molecule: NC(=O)c1ncn([C@@H]2O[C@H](CO)[C@@H](O)[C@H]2O)n1 [Ribavirin]
- body weights compared to vehicle control on day 4 ([4]; Ribavarin, E1 25, 50 and 100 mg/kg, CE3 100, 500 and 1000 mg/kg, p<0.05): significantly higher body weights
- viral growth rate and viral load in the lungs compared to vehicle control ([4]; Ribavirin 66 mg/kg IP, E1 25-100 mg/kg, CE3 100-1000 mg/kg iv bid): significantly reduced the viral growth rate and viral load in the lungs
- viral titres compared to vehicle control on day 4 ([4]; Ribavirin, E1 25, 50 and 100 mg/kg, CE3 100, 500 and 1000 mg/kg, p<0.05): significantly lower viral titres
- Body weights Mean ([4]; mice infected with H1N1, Ribavarin 66 mg/kg i.p., Day 0): 23.92 g
- Body weights Mean ([4]; mice infected with H1N1, Ribavarin 66 mg/kg i.p., Day 1): 23.50 g
- Body weights Mean ([4]; mice infected with H1N1, Ribavarin 66 mg/kg i.p., Day 2): 24.22 g
- Body weights Mean (g) ([4]; mice infected with H1N1, Ribavarin 66 mg/kg i.p., Day 4): 24.67* g
- Body weights Mean ([4]; mice infected with H1N1, Ribavarin 66 mg/kg i.p., Day 6): 24.70 g
- body weight through the study ([4]; mice infected with H1N1, Ribavirin 66 mg/kg once daily IP): no significant decrease in body weight

Molecule: Saframycin
- bacterial load on day 4 compared to day 1 ([5]; E1, CE3 100 μl (19.15 mg/ml) topical 3 days, Saframycin 30 mg topical b.i.d 3 days): did not show significant efficacy on day 4 when compared to day 1
- % wound contraction on Day 4 PI (Mean ± SD) ([5]; E1, CE3 100 μl (19.15 mg/ml) topical 3 days, Safromycin 30 mg topical b.i.d 3 days): 2.48 ± 0.30%
- wound reduction on day 4 compared to vehicle control ([5]; E1, CE3 100 μl (19.15 mg/ml) topical 3 days, Safromycin 30 mg topical b.i.d 3 days, p<0.05): significant reduction wound on day 4
- Bacterial Load on skin post treatment Day 1 PI ([5]; Mean ± SD, E1, CE3 100 μl (19.15 mg/ml) topical u.i.d 3 days, Safromycin 30 mg topical b.i.d 3 days, Day 1 PI): 5.84 ± 0.35 Logic CFU/Swab
- Bacterial Load on skin post treatment Day 4 PI ([5]; Mean ± SD, E1, CE3 100 μl (19.15 mg/ml) topical u.i.d 3 days, Safromycin 30 mg topical b.i.d 3 days, Day 4 PI): 4.87 ± 0.63 Logic CFU/Swab
